Measurements: patent publication US8969325B2, “TRPV1 antagonists” (AbbVie Inc., priority 2011, dated 2015)

How the values were obtained:
human TRPV1 [1] = target: T1, human TRPV1 (Homo sapiens (Human), UniProt Q8NER1); assay: Acid Activation Assay (pH 5.0, intracellular Ca2+, FLIPR); format: cell-based; settings: percentage of the maximal pH 5.0-induced response remaining; recombinant HEK293 hTRPV1 cells; maximum concentration tested 37.5 μM
Method in brief: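 HEK293 cells stably expressing recombinant hTRPV1, loaded with Calcium-4 dye 90-120 min at 25° C. Compounds added over a 12-point half-log range (top 37.5 μM), then pH 5.0 DPBS/MES challenge after 3 min; FLIPR peak fluorescence over baseline given as % of maximal pH 5.0 response.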

human TRPV1 [2] = target: T1, human TRPV1; assay: Capsaicin Activation Assay (intracellular Ca2+, FLIPR); format: cell-based; settings: recombinant HEK293 cells expressing hTRPV1, 50 nM capsaicin
Method in brief: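 Stably transfected HEK293 cells expressing human TRPV1 cDNA, plated the day before in poly-D-lysine plates. Compounds serially diluted from 10 mM DMSO stocks; intracellular Ca2+ fluorescence read on FLIPR at 1 to 5 second intervals.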

T1 sequence (Q8NER1 whole entry): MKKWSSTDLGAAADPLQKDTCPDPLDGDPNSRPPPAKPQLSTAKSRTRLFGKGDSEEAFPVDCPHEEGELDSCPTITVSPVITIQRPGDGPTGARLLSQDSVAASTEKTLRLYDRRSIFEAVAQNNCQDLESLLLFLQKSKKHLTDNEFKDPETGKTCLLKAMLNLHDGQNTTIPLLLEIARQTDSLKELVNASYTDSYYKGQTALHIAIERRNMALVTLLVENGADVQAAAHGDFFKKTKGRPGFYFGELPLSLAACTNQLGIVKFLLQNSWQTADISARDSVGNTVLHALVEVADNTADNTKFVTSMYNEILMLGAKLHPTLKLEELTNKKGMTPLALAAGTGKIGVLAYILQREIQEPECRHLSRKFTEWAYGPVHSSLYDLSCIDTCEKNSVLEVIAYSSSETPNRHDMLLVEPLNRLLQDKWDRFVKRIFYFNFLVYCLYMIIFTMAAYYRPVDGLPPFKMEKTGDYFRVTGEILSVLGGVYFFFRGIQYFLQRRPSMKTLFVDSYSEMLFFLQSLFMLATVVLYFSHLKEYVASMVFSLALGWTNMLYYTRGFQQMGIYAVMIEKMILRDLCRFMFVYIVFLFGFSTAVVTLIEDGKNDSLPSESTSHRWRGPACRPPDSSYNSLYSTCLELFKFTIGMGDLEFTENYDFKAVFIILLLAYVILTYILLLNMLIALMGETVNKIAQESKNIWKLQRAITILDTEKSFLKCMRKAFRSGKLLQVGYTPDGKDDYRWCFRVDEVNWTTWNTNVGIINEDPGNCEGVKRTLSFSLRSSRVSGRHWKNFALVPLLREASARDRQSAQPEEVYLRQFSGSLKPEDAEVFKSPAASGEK

| SMILES | human TRPV1 H^+ (max % remain) (human TRPV1 [1]) [%] | IC50 (human TRPV1 [2]) [µM] |
| --- | --- | --- |
| O=C1CCc2ccc(NC(=O)N[C@@H]3CC(CF)(CF)Oc4c(F)cc(F)cc43)cc2N1 [Example 214, 1-[(4R)-6,8-difluoro-2,2-bis(fluoromethyl)-3,4-dihydro-2H-chromen-4-yl]-3-(2-oxo-1,2,3,4-tetrahydroquinolin-7-yl)urea] | 40 | 0.18 |
| O=C1CCc2ccc(NC(=O)N[C@@H]3CC(CF)(CF)Oc4ccccc43)cc2N1 [Example 215, 1-[(4R)-2,2-bis(fluoromethyl)-3,4-dihydro-2H-chromen-4-yl]-3-(2-oxo-1,2,3,4-tetrahydroquinolin-7-yl)urea] | 49 | 0.06 |
| O=C1CCc2ccc(NC(=O)N[C@@H]3CC(CF)(CF)Oc4c(F)cccc43)cc2N1 [Example 216, 1-[(4R)-8-fluoro-2,2-bis(fluoromethyl)-3,4-dihydro-2H-chromen-4-yl]-3-(2-oxo-1,2,3,4-tetrahydroquinolin-7-yl)urea] | 50 | 0.22 |
| O=C1CCc2ccc(NC(=O)N[C@H]3CC(CF)(CF)Oc4cc(Cl)ccc43)cc2N1 [Example 217, 1-[(4S)-7-chloro-2,2-bis(fluoromethyl)-3,4-dihydro-2H-chromen-4-yl]-3-(2-oxo-1,2,3,4-tetrahydroquinolin-7-yl)urea] | 50 | 0.43 |
| CC1(C)C[C@@H](NC(=O)Nc2ccc3c(c2)NC(=O)CC3)c2cccc(C(F)(F)F)c2O1 [Example 218, 1-[(4R)-2,2-dimethyl-8-(trifluoromethyl)-3,4-dihydro-2H-chromen-4-yl]-3-(2-oxo-1,2,3,4-tetrahydroquinolin-7-yl)urea] | 101 | 3.6 |
| CCC1(CC)C[C@@H](NC(=O)Nc2ccc3c(c2)NC(=O)CC3)c2ccccc2O1 [Example 223, 1-[(4R)-2,2-diethyl-3,4-dihydro-2H-chromen-4-yl]-3-(2-oxo-1,2,3,4-tetrahydroquinolin-7-yl)urea] | 44 | 0.037 |
| CCC1(CC)C[C@@H](NC(=O)Nc2ccc3c(c2)NC(=O)CC3)c2ccc(C(F)(F)F)cc2O1 [Example 224, 1-[(4R)-2,2-diethyl-7-(trifluoromethyl)-3,4-dihydro-2H-chromen-4-yl]-3-(2-oxo-1,2,3,4-tetrahydroquinolin-7-yl)urea] | 44 | 0.035 |
| CCC1(CC)C[C@@H](NC(=O)Nc2ccc3c(c2)NC(=O)CC3)c2ccc(Cl)cc2O1 [Example 225, 1-[(4R)-7-chloro-2,2-diethyl-3,4-dihydro-2H-chromen-4-yl]-3-(2-oxo-1,2,3,4-tetrahydroquinolin-7-yl)urea] | 12 | 0.13 |
| CCC1(CC)C[C@@H](NC(=O)Nc2ccc3c(c2)NC(=O)CC3)c2ccc(Cl)c(Cl)c2O1 [Example 226, 1-[(4R)-7,8-dichloro-2,2-diethyl-3,4-dihydro-2H-chromen-4-yl]-3-(2-oxo-1,2,3,4-tetrahydroquinolin-7-yl)urea] | 12 | 0.1 |
| CCCC1(CCC)C[C@@H](NC(=O)Nc2ccc3c(c2)NC(=O)CC3)c2cc(F)ccc2O1 [Example 227, 1-[(4R)-6-fluoro-2,2-dipropyl-3,4-dihydro-2H-chromen-4-yl]-3-(2-oxo-1,2,3,4-tetrahydroquinolin-7-yl)urea] | 19 | 0.22 |
| CCCC1(CCC)C[C@@H](NC(=O)Nc2ccc3c(c2)NC(=O)CC3)c2cccc(F)c2O1 [Example 230, 1-[(4R)-8-fluoro-2,2-dipropyl-3,4-dihydro-2H-chromen-4-yl]-3-(2-oxo-1,2,3,4-tetrahydroquinolin-7-yl)urea] | 24 | 0.038 |
| O=C1CCc2ccc(NC(=O)N[C@@H]3CC(CF)(CF)Oc4c3ccc(Cl)c4F)cc2N1 [Example 231, 1-[(4R)-7-chloro-8-fluoro-2,2-bis(fluoromethyl)-3,4-dihydro-2H-chromen-4-yl]-3-(2-oxo-1,2,3,4-tetrahydroquinolin-7-yl)urea] | 55 | 0.076 |
| CC1(C)C[C@@H](NC(=O)Nc2ccc3c(c2)NC(=O)CC3)c2ccc(F)c(Cl)c2O1 [Example 233, 1-[(4R)-8-chloro-7-fluoro-2,2-dimethyl-3,4-dihydro-2H-chromen-4-yl]-3-(2-oxo-1,2,3,4-tetrahydroquinolin-7-yl)urea] | 37 | 0.35 |
| COCC1(COC)C[C@@H](NC(=O)Nc2ccc3c(c2)NC(=O)CC3)c2cc(F)ccc2O1 [Example 237, 1-[(4R)-6-fluoro-2,2-bis(methoxymethyl)-3,4-dihydro-2H-chromen-4-yl]-3-(2-oxo-1,2,3,4-tetrahydroquinolin-7-yl)urea] | 52 | 0.15 |
| O=C1CCc2ccc(NC(=O)N[C@@H]3CC4(CCCC4)Oc4ccccc43)cc2N1 [Example 244, 1-[(4R)-3,4-dihydrospiro[chromene-2,1′-cyclopentan]-4-yl]-3-(2-oxo-1,2,3,4-tetrahydroquinolin-7-yl)urea] | 41 | 7.1 |
| C[C@@]1(C(F)(F)F)C[C@@H](NC(=O)Nc2ccc3c(c2)NC(=O)CC3)c2ccccc2O1 [Example 245, 1-[(2S,4R)-2-methyl-2-(trifluoromethyl)-3,4-dihydro-2H-chromen-4-yl]-3-(2-oxo-1,2,3,4-tetrahydroquinolin-7-yl)urea] | 28 | 0.28 |

Other lines, results leading:

| human TRPV1 H^+ (max % remain) (human TRPV1 [1]) [%] | IC50 (human TRPV1 [2]) [µM] | SMILES |
| --- | --- | --- |
| 29 | 0.056 | CC1(C)C[C@@H](NC(=O)Nc2ccc3c(c2)NC(=O)CC3)c2cccc(F)c2O1 [Example 219, 1-[(4R)-8-fluoro-2,2-dimethyl-3,4-dihydro-2H-chromen-4-yl]-3-(2-oxo-1,2,3,4-tetrahydroquinolin-7-yl)urea] |
| 41 | 0.19 | O=C1CCc2ccc(NC(=O)N[C@@H]3CCOc4ccccc43)cc2N1 [Example 220, 1-[(4R)-3,4-dihydro-2H-chromen-4-yl]-3-(2-oxo-1,2,3,4-tetrahydroquinolin-7-yl)urea] |
| 57 | 0.12 | O=C1CCc2ccc(NC(=O)N[C@@H]3CC4(CCC4)Oc4ccc(F)cc43)cc2N1 [Example 228, 1-[(4R)-6-fluoro-3,4-dihydrospiro[chromene-2,1′-cyclobutan]-4-yl]-3-(2-oxo-1,2,3,4-tetrahydroquinolin-7-yl)urea] |
| 36 | 0.074 | CCC1(CC)C[C@@H](NC(=O)Nc2ccc3c(c2)NC(=O)CC3)c2cc(F)ccc2O1 [Example 229, 1-[(4R)-2,2-diethyl-6-fluoro-3,4-dihydro-2H-chromen-4-yl]-3-(2-oxo-1,2,3,4-tetrahydroquinolin-7-yl)urea] |
| 32 | 0.14 | CC1(C)C[C@@H](NC(=O)Nc2ccc3c(c2)NC(=O)CC3)c2cc(F)ccc2O1 [Example 232, 1-[(4R)-6-fluoro-2,2-dimethyl-3,4-dihydro-2H-chromen-4-yl]-3-(2-oxo-1,2,3,4-tetrahydroquinolin-7-yl)urea] |
| 27 | 0.09 | O=C1CCc2ccc(NC(=O)N[C@H]3CCOc4cc(OC(F)(F)F)ccc43)cc2N1 [Example 234, 1-(2-oxo-1,2,3,4-tetrahydroquinolin-7-yl)-3-[(4S)-7-(trifluoromethoxy)-3,4-dihydro-2H-chromen-4-yl]urea] |
| 29 | 1.3 | CC1(C)C[C@@H](NC(=O)Nc2ccc3c(c2)NC(=O)CC3)c2ccc(Cl)cc2O1 [Example 235, 1-[(4R)-7-chloro-2,2-dimethyl-3,4-dihydro-2H-chromen-4-yl]-3-(2-oxo-1,2,3,4-tetrahydroquinolin-7-yl)urea] |
| 27 | 0.032 | O=C1CCc2ccc(NC(=O)N[C@@H]3CCOc4cc(OC(F)(F)F)ccc43)cc2N1 [Example 236, 1-(2-oxo-1,2,3,4-tetrahydroquinolin-7-yl)-3-[(4R)-7-(trifluoromethoxy)-3,4-dihydro-2H-chromen-4-yl]urea] |
| 47 | 0.51 | O=C1CCc2ccc(NC(=O)N[C@@H]3CCOc4c3cccc4C(F)(F)F)cc2N1 [Example 238, 1-(2-oxo-1,2,3,4-tetrahydroquinolin-7-yl)-3-[(4R)-8-(trifluoromethyl)-3,4-dihydro-2H-chromen-4-yl]urea] |
| 26 | 0.047 | O=C1CCc2ccc(NC(=O)N[C@@H]3CCOc4cc(C(F)(F)F)ccc43)cc2N1 [Example 239, 1-(2-oxo-1,2,3,4-tetrahydroquinolin-7-yl)-3-[(4R)-7-(trifluoromethyl)-3,4-dihydro-2H-chromen-4-yl]urea] |
| 25 | 0.037 | O=C1CCc2ccc(NC(=O)N[C@@H]3CCc4cc(F)ccc43)cc2N1 [Example 240, 1-[(1R)-5-fluoro-2,3-dihydro-1H-inden-1-yl]-3-(2-oxo-1,2,3,4-tetrahydroquinolin-7-yl)urea] |
| 30 | 0.086 | O=C1CCc2ccc(NC(=O)N[C@H]3CC4(CCC4)Oc4ccc(F)cc43)cc2N1 [Example 242, 1-[(4S)-6-fluoro-3,4-dihydrospiro[chromene-2,1′-cyclobutan]-4-yl]-3-(2-oxo-1,2,3,4-tetrahydroquinolin-7-yl)urea] |
| 45 | 4.9 | CC1(C)C[C@H](NC(=O)Nc2ccc3c(c2)NC(=O)CC3)c2cc(F)ccc2O1 [Example 243, 1-[(4S)-6-fluoro-2,2-dimethyl-3,4-dihydro-2H-chromen-4-yl]-3-(2-oxo-1,2,3,4-tetrahydroquinolin-7-yl)urea] |
